# Source: patent publication EP4796530A1 (Biocells (Beijing) Biotech Co., Ltd., priority 2023, dated 2025)
# Molecular target: NLRP3 (Mus musculus, UniProt Q8R4B8)
# Experiment: LPS-induced sepsis model in mice: serum IL-1β and survival rate
# Type: in vivo, C57BL/6 mice
# Design: tissue National Institutes for Food and Drug Control; host or cells: C57BL/6J mice in vivo (serum IL-1β in A7, ascites IL-1β in A8)
# Conditions: 30 mg/kg intraperitoneally 1 h before 20 mg/kg LPS
# Procedure: Intraperitoneal injection of 20 mg/kg LPS can induce a septic state in C57BL/6 mice and cause a significant increase in serum IL-1β after injection. Example compounds were intraperitoneally injected preemptively to study the effects on IL-1β increase and mouse survival rate. LPS was purchased from Sigma, Cat. No. L2630; and C57BL/6J male mice aged 6-8 weeks were purchased from National Institutes for Food and Drug Control.
# Experimental groups: a sham group, a model group, and an example compound dosing group.
# 30 mg/kg of example compounds were injected intraperitoneally. 1 h later, 20 mg/kg LPS was injected intraperitoneally into the model group and the example compound dosing group for modeling, and the control solvent was injected into the sham group. Serum samples were collected from a batch of mice at 2.5 h and 4 h after modeling, and the levels of IL-1β were analyzed. For another batch of mice, the survival rate of the mice was calculated after modeling.
# Chain of NLRP3 (Q8R4B8 whole entry): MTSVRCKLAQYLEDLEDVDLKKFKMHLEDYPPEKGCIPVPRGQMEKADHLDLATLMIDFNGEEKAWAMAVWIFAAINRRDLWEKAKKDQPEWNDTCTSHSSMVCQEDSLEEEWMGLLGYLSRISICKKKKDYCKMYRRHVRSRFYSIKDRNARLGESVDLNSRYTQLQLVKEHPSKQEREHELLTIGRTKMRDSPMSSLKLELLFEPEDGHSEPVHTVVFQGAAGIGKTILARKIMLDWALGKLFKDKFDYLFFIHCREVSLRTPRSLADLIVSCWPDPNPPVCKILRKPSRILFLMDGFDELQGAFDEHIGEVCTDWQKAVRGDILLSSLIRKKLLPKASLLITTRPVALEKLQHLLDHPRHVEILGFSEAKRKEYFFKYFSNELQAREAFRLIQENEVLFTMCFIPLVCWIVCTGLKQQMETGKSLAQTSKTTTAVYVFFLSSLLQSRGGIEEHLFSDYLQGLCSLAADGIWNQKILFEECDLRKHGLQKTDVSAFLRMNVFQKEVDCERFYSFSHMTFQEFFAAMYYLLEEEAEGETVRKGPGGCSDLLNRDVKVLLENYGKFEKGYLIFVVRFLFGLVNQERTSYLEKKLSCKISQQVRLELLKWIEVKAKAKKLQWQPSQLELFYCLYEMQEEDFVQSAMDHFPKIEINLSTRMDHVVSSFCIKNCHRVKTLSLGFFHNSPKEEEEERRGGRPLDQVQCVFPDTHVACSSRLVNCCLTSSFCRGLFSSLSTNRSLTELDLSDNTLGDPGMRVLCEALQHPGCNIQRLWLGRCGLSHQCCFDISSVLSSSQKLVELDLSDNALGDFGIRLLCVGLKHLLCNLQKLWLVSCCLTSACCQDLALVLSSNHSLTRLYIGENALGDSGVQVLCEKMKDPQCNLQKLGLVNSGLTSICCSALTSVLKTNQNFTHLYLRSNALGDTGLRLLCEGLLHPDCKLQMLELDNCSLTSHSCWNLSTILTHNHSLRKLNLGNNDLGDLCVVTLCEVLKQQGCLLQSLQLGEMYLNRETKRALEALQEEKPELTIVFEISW
smiles,measurement,setting,value
"CN(C)Cc1cccc(S(=O)(=O)NC(=O)Nc2c3c(cc4c2CCC4)CCC3)c1N [Example 19, 2-amino-3-((dimethylamino)methyl)-N-((1,2,3,5,6,7-hexahydro-s-indacen-4-yl)carbamoyl)benzenesulfonamide]",mouse survival rate compared with the model group,,significantly improved
same,survival rate compared with MCC950,,significantly further improved
same,IL-1β level in serum compared with the model group,2.5 h after modeling,significant differences
same,IL-1β level in serum compared with the model group,4 h after modeling,significant differences
